Activity calls are given as the source filed them. No rule for the calls is given here.
Target: fMet-Leu-Phe receptor (Homo sapiens) (UniProt P21462)
Assay: FPR antagonists blocking calcium flux, SAR follow-up, U937 cells, fMLFF stimulus, Fluo4, flow cytometry (AID 863)
Settings: FPR-expressing U937 cells, fMLFF-induced Fluo4 calcium flux, 80 s, active compounds read high, concentration not given here

fMet-Leu-Phe receptor (Homo sapiens), sequence (P21462 whole entry, looked up): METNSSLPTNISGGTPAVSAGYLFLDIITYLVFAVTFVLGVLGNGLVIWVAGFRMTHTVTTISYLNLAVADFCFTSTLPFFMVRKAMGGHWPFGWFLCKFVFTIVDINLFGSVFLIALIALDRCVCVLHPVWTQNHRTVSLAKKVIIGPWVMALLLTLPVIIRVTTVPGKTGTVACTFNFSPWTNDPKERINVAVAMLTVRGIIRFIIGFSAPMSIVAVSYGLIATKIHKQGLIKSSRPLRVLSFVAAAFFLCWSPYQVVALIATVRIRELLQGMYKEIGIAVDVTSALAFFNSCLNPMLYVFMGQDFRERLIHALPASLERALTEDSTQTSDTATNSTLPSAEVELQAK

| inhibition | SMILES |
| --- | --- |
| 98.8% | COc1ccccc1-c1c(C(F)(F)F)oc2cc(OC(=O)c3ccco3)ccc2c1=O |
| 96.9% | COc1ccc(C2C(C(=O)c3cccs3)=C(O)C(=O)N2CCCn2ccnc2)cc1 (centres undefined) |
| 185% | O=C(Oc1ccc2c(=O)c(-c3ccccc3Cl)c(C(F)(F)F)oc2c1)c1cccs1 |
| 98.1% | Cc1nc2c(-c3ccc(Cl)cc3)c(C(F)(F)F)[nH]n2c(=O)c1Cc1ccccc1 |
| 72.3% (inactive) | COc1ccc(C2C(C(=O)c3cccs3)=C(O)C(=O)N2CCN2CCOCC2)c(OC)c1 (centres undefined) |
| 85.6% (inactive) | COc1ccc(-c2c(C(F)(F)F)oc3cc(OC(=O)c4cccnc4)ccc3c2=O)cc1OC |
| 93% | COc1ccc(-c2c(C(F)(F)F)oc3cc(OC(=O)c4ccco4)ccc3c2=O)cc1OC |
| 40.7% (inactive) | COc1ccc(OC)c(C2/C(=C(\O)c3ccccc3)C(=O)C(=O)N2c2cccnc2)c1 (centres undefined) |
| 101% | CCc1cc2c(=O)c(-c3nc4ccccc4n3C)c(C)oc2cc1OC(C)=O |
| 44% (inactive) | CCCCCCN1C(=O)C(=O)/C(=C(\O)c2ccccc2)C1c1ccc(O)c(OC)c1 (centres undefined) |
| 99.5% | COc1ccc(C2/C(=C(\O)c3ccccc3)C(=O)C(=O)N2CCCn2ccnc2)c(OC)c1 (centres undefined) |
| 58.1% (inactive) | COc1ccc(C2C(C(=O)c3ccco3)=C(O)C(=O)N2CCN2CCOCC2)c(OC)c1 (centres undefined) |
| 81.3% (inactive) | O=C(C1=C(O)C(=O)N(CCc2ccccc2)C1c1ccc(Cl)cc1)c1cccs1 (centres undefined) |
| 97.5% | COCCN1C(=O)C(=O)/C(=C(/O)c2ccccc2)C1c1cc(OC)ccc1OC (centres undefined) |

Reference: PubChem BioAssay AID863 (NMMLSC, 2007)
